Measurements as given in ChEMBL document CHEMBL5036347, “Design of the naphthyl-diarylpyrimidines as potent non-nucleoside reverse transcriptase inhibitors (NNRTIs) via structure-based extension into the entrance channel” (Eur J Med Chem, 2021).
Converted amounts (≈) assume the structure as drawn.

Test system: Human immunodeficiency virus 1
Assay: Anti-HIV activity against HIV-1 IIIB infected in human MT4 cells assessed as reduction in virus-induced cytopathic effect incubated for 5 days by MTT assay
Assay type: functional, organism-based
Conditions: Human immunodeficiency virus 1, IIIB, MT4, 120 h

SMILES	EC50
COc1cc2cc(C#N)ccc2c(OC)c1Oc1cc(N)nc(Nc2ccc(C#N)cc2)n1	5.4 nM

Test system: Human immunodeficiency virus 2
Assay: Anti-HIV activity against HIV2 ROD infected in human MT4 cells assessed as reduction in virus-induced cytopathic effect incubated for 5 days by MTT assay
Assay type: functional, organism-based
Conditions: Human immunodeficiency virus 2, ROD, MT4, 120 h

SMILES	EC50
COc1cc2cc(C#N)ccc2c(OC)c1Oc1cc(N)nc(Nc2ccc(C#N)cc2)n1	7280 nM

Test system: not listed separately
Assay: Cytotoxicity against human MT4 cells assessed as reduction in cell viability incubated for 5 days by MTT assay
Assay type: cell-based
Conditions: human, MT4 cells; time 5 day

SMILES	CC50 at 120 h
COc1cc2cc(C#N)ccc2c(OC)c1Oc1cc(N)nc(Nc2ccc(C#N)cc2)n1	19000 nM

Test system: Human immunodeficiency virus 1
Assay: Antiviral activity against HIV1 harboring reverse transcriptase L100I mutant infected in human MT4 cells assessed as protection against virus-induced cytopathic effect incubated for 5 days by MTT assay
Assay type: functional, organism-based
Conditions: Human immunodeficiency virus 1, MT4, 120 h

SMILES	EC50
COc1cc2cc(C#N)ccc2c(OC)c1Oc1cc(N)nc(Nc2ccc(C#N)cc2)n1	38 nM

Test system: Human immunodeficiency virus 1
Assay: Antiviral activity against HIV1 harboring reverse transcriptase K103N mutant infected in human MT4 cells assessed as protection against virus-induced cytopathic effect incubated for 5 days by MTT assay
Assay type: functional, organism-based
Conditions: Human immunodeficiency virus 1, MT4, 120 h

SMILES	EC50
COc1cc2cc(C#N)ccc2c(OC)c1Oc1cc(N)nc(Nc2ccc(C#N)cc2)n1	5.3 nM

Test system: Human immunodeficiency virus 1
Assay: Antiviral activity against HIV1 harboring reverse transcriptase Y181C mutant infected in human MT4 cells assessed as protection against virus-induced cytopathic effect incubated for 5 days by MTT assay
Assay type: functional, organism-based
Conditions: Human immunodeficiency virus 1, MT4, 120 h

SMILES	EC50
COc1cc2cc(C#N)ccc2c(OC)c1Oc1cc(N)nc(Nc2ccc(C#N)cc2)n1	16 nM

Test system: Human immunodeficiency virus 1
Assay: Antiviral activity against HIV1 harboring reverse transcriptase Y188L mutant infected in human MT4 cells assessed as protection against virus-induced cytopathic effect incubated for 5 days by MTT assay
Assay type: functional, organism-based
Conditions: Human immunodeficiency virus 1, MT4, 120 h

SMILES	EC50
COc1cc2cc(C#N)ccc2c(OC)c1Oc1cc(N)nc(Nc2ccc(C#N)cc2)n1	176 nM

Test system: Human immunodeficiency virus 1
Assay: Antiviral activity against HIV1 harboring reverse transcriptase E138K mutant infected in human MT4 cells assessed as protection against virus-induced cytopathic effect incubated for 5 days by MTT assay
Assay type: functional, organism-based
Conditions: Human immunodeficiency virus 1, MT4, 120 h

SMILES	EC50
COc1cc2cc(C#N)ccc2c(OC)c1Oc1cc(N)nc(Nc2ccc(C#N)cc2)n1	14 nM

Test system: Human immunodeficiency virus 1
Assay: Antiviral activity against HIV1 harboring reverse transcriptase F227L/V106A mutant infected in human MT4 cells assessed as protection against virus-induced cytopathic effect incubated for 5 days by MTT assay
Assay type: functional, organism-based
Conditions: Human immunodeficiency virus 1, MT4, 120 h

SMILES	EC50
COc1cc2cc(C#N)ccc2c(OC)c1Oc1cc(N)nc(Nc2ccc(C#N)cc2)n1	330 nM

Test system: not listed separately
Assay: Resistance fold, ratio of EC50 for HIV1 harboring reverse transcriptase Y181C mutant […] to EC50 for wild type HIV1 […]
Assay type: functional
Conditions: not given

SMILES	Ratio EC50
COc1cc2cc(C#N)ccc2c(OC)c1Oc1cc(N)nc(Nc2ccc(C#N)cc2)n1	3

Test system: not listed separately
Assay: Resistance fold, ratio of EC50 for HIV1 harboring reverse transcriptase L100I mutant […] to EC50 for wild type HIV1 […]
Assay type: functional
Conditions: not given

SMILES	Ratio EC50
COc1cc2cc(C#N)ccc2c(OC)c1Oc1cc(N)nc(Nc2ccc(C#N)cc2)n1	7

Test system: not listed separately
Assay: Resistance fold, ratio of EC50 for HIV1 harboring reverse transcriptase K103N mutant […] to EC50 for wild type HIV1 […]
Assay type: functional
Conditions: not given

SMILES	Ratio EC50
COc1cc2cc(C#N)ccc2c(OC)c1Oc1cc(N)nc(Nc2ccc(C#N)cc2)n1	1

Test system: Human immunodeficiency virus 1
Assay: Antiviral activity against HIV1 harboring reverse transcriptase K103N/Y181C double mutant infected in human MT4 cells assessed as protection against virus-induced cytopathic effect incubated for 5 days by MTT assay
Assay type: functional, organism-based
Conditions: Human immunodeficiency virus 1, MT4, 120 h

SMILES	EC50
COc1cc2cc(C#N)ccc2c(OC)c1Oc1cc(N)nc(Nc2ccc(C#N)cc2)n1	30 nM

Test system: not listed separately
Assay: Selectivity index, ratio of CC50 for cytotoxicity against human MT4 cells to EC50 of Anti-HIV activity against HIV-1 IIIB infected in human MT4
Assay type: toxicity, cell-based
Conditions: read-out: Selectivity Index

SMILES	selectivity ratio
COc1cc2cc(C#N)ccc2c(OC)c1Oc1cc(N)nc(Nc2ccc(C#N)cc2)n1	3500

Biological target: Human immunodeficiency virus type 1 reverse transcriptase (Human immunodeficiency virus 1, UniProt Q72547, K103N/Y181C)
Assay: Inhibition of HIV1 reverse transcriptase K103N/Y181C double mutant using oligo(dT)16 as primer measured after 40 mins by picogreen-dye based spectrofluorimetric analysis
Conditions: not given

SMILES	IC50
COc1cc2cc(C#N)ccc2c(OC)c1Oc1cc(N)nc(Nc2ccc(C#N)cc2)n1	60 nM

Test system: not listed separately
Assay: Resistance fold, ratio of EC50 for HIV1 harboring reverse transcriptase Y188L mutant […] to EC50 for wild type HIV1 […]
Assay type: functional
Conditions: not given

SMILES	Ratio EC50
COc1cc2cc(C#N)ccc2c(OC)c1Oc1cc(N)nc(Nc2ccc(C#N)cc2)n1	33

Test system: not listed separately
Assay: Resistance fold, ratio of EC50 for HIV1 harboring reverse transcriptase E138K mutant […] to EC50 for wild type HIV1 […]
Assay type: functional
Conditions: not given

SMILES	Ratio EC50
COc1cc2cc(C#N)ccc2c(OC)c1Oc1cc(N)nc(Nc2ccc(C#N)cc2)n1	3

Test system: not listed separately
Assay: Resistance fold, ratio of EC50 for HIV1 harboring reverse transcriptase F227L/V106A double mutant […] to EC50 for wild type HIV1 […]
Assay type: functional
Conditions: not given

SMILES	Ratio EC50
COc1cc2cc(C#N)ccc2c(OC)c1Oc1cc(N)nc(Nc2ccc(C#N)cc2)n1	61

Test system: not listed separately
Assay: Resistance fold, ratio of EC50 for HIV1 harboring reverse transcriptase K103N/Y181C double mutant […] to EC50 for wild type HIV1 […]
Assay type: functional
Conditions: not given

SMILES	Ratio EC50
COc1cc2cc(C#N)ccc2c(OC)c1Oc1cc(N)nc(Nc2ccc(C#N)cc2)n1	6

Biological target: Human immunodeficiency virus type 1 reverse transcriptase (Human immunodeficiency virus 1, UniProt Q72547)
Assay: Inhibition of wild type HIV1 reverse transcriptase using oligo(dT)16 as primer measured after 40 mins by picogreen-dye based spectrofluorimetric analysis
Conditions: not given

SMILES	IC50
COc1cc2cc(C#N)ccc2c(OC)c1Oc1cc(N)nc(Nc2ccc(C#N)cc2)n1	20 nM

Biological target: Human immunodeficiency virus type 1 reverse transcriptase (Human immunodeficiency virus 1, UniProt Q72547, L100I)
Assay: Inhibition of HIV1 reverse transcriptase L100I mutant using oligo(dT)16 as primer measured after 40 mins by picogreen-dye based spectrofluorimetric analysis
Conditions: not given

SMILES	IC50
COc1cc2cc(C#N)ccc2c(OC)c1Oc1cc(N)nc(Nc2ccc(C#N)cc2)n1	70 nM

Biological target: Human immunodeficiency virus type 1 reverse transcriptase (Human immunodeficiency virus 1, UniProt Q72547, K103N)
Assay: Inhibition of HIV1 reverse transcriptase K103N mutant using oligo(dT)16 as primer measured after 40 mins by picogreen-dye based spectrofluorimetric analysis
Conditions: not given

SMILES	IC50
COc1cc2cc(C#N)ccc2c(OC)c1Oc1cc(N)nc(Nc2ccc(C#N)cc2)n1	40 nM

Biological target: Human immunodeficiency virus type 1 reverse transcriptase (Human immunodeficiency virus 1, UniProt Q72547, Y181C)
Assay: Inhibition of HIV1 reverse transcriptase Y181C mutant using oligo(dT)16 as primer measured after 40 mins by picogreen-dye based spectrofluorimetric analysis
Conditions: not given

SMILES	IC50
COc1cc2cc(C#N)ccc2c(OC)c1Oc1cc(N)nc(Nc2ccc(C#N)cc2)n1	40 nM

Biological target: Human immunodeficiency virus type 1 reverse transcriptase (Human immunodeficiency virus 1, UniProt Q72547, Y188L)
Assay: Inhibition of HIV1 reverse transcriptase Y188L mutant using oligo(dT)16 as primer measured after 40 mins by picogreen-dye based spectrofluorimetric analysis
Conditions: not given

SMILES	IC50
COc1cc2cc(C#N)ccc2c(OC)c1Oc1cc(N)nc(Nc2ccc(C#N)cc2)n1	150 nM

Biological target: Human immunodeficiency virus type 1 reverse transcriptase (Human immunodeficiency virus 1, UniProt Q72547, E138K)
Assay: Inhibition of HIV1 reverse transcriptase E138K mutant using oligo(dT)16 as primer measured after 40 mins by picogreen-dye based spectrofluorimetric analysis
Conditions: not given

SMILES	IC50
COc1cc2cc(C#N)ccc2c(OC)c1Oc1cc(N)nc(Nc2ccc(C#N)cc2)n1	20 nM

Biological target: Human immunodeficiency virus type 1 reverse transcriptase (Human immunodeficiency virus 1, UniProt Q72547, F227L/V106A)
Assay: Inhibition of HIV1 reverse transcriptase F227L/V106A double mutant using oligo(dT)16 as primer measured after 40 mins by picogreen-dye based spectrofluorimetric analysis
Conditions: not given

SMILES	IC50
COc1cc2cc(C#N)ccc2c(OC)c1Oc1cc(N)nc(Nc2ccc(C#N)cc2)n1	120 nM

Test system: not listed separately
Assay: Water solubility of compound at pH 2 at 0.1 to 10 mg by HPLC-UV analysis
Assay type: physicochemical
Conditions: dose 0.1-10 mg

SMILES	solubility
COc1cc2cc(C#N)ccc2c(OC)c1Oc1cc(N)nc(Nc2ccc(C#N)cc2)n1	< 1 µg/mL

Test system: not listed separately
Assay: Water solubility of compound at pH 7 at 0.1 to 10 mg by HPLC-UV analysis
Assay type: physicochemical
Conditions: dose 0.1-10 mg

SMILES	solubility
COc1cc2cc(C#N)ccc2c(OC)c1Oc1cc(N)nc(Nc2ccc(C#N)cc2)n1	< 1 µg/mL

Test system: not listed separately
Assay: Water solubility of compound at pH 7.4 at 0.1 to 10 mg by HPLC-UV analysis
Assay type: physicochemical
Conditions: dose 0.1-10 mg

SMILES	solubility
COc1cc2cc(C#N)ccc2c(OC)c1Oc1cc(N)nc(Nc2ccc(C#N)cc2)n1	1 µg/mL (≈ 2.28 µM)
